Consider eight compounds from ChEMBL document CHEMBL5137025, “Tuberculosis Drug Discovery: Challenges and New Horizons” (J Med Chem, 2022).

Converted amounts (≈) assume the structure as drawn.

Data set [1] has as its system Mycobacterium tuberculosis. The class given is functional. The following applies: H37Rv, 336 h, time 14 day.
The test system of data set [2] is Mycobacterium tuberculosis. The class given is functional, H37Rv. The following applies: dose 100 mg/kg; route po; time 4 weeks.
The test system of data set [3] is Mycobacterium tuberculosis. It is filed as functional. The following applies: H37Rv, time 6 day.
The test system of data set [4] is HepG2. Nature of the data set: Cytotoxicity against human HepG2 cells assessed as reduction in cell viability treated for 3 days by resazurin reduction microplate assay. The class given is functional. Particulars: HepG2, 72 h, time 3 day.
Data set [5] concerns Mycobacterium tuberculosis. The class given is functional, H37Rv. Particulars: dose 100 mg/kg; route po; time 10 day.
For another data set, the system named is A549. Description: Cytotoxicity against human A549 cells treated for 72 hrs by MTT assay. The class given is functional.
Data set [6] is described as follows: Metabolic stability in mouse liver microsome assessed as half life in presence of NADPH measured upto 60 mins by LC-MS/MS analysis. It is filed as ADME. Particulars: liver microsomes.
In data set [7] the test system is Mycobacterium tuberculosis. Description: Bactericidal activity against Mycobacterium tuberculosis H37Rv in acute Mtb infection BALB/c mouse model assessed as reduction in relative light unit at 100 mg/kg for 6 days. The class given is functional. Particulars: time 6 day.
The subject of data set [8] is Mycobacterium tuberculosis. Description: microbe, parasite or virus in culture. The following applies: H37Rv.
Description: Antibacterial activity against Mycobacterium tuberculosis H37Rv assessed as inhibition of bacterial growth
The subject of data set [9] is Mycobacterium tuberculosis. Description: Antibacterial activity against Mycobacterium tuberculosis in chronic Mtb infection C3HeB/FeJ mouse model assessed as reduction in log10 CFU in lungs at 250 mg/kg, po via gavage for 2 weeks. It is filed as functional.
In data set [10] the test system is Mycobacterium tuberculosis. Description: Antibacterial activity against Mycobacterium tuberculosis CDC1551 infected in mouse J774 cells assessed as inhibition of bacterial growth at 20 uM incubated for 24 hrs relative to control. The class given is functional. The arrangement: scale not given: the % may be the effect or the level left.
Data set [11] in a line: Cytotoxicity against African green monkey Vero cells treated for 72 hrs by microplate reader method. The class given is toxicity, cell-based. The following applies: chlorocebus sabaeus.
The nature of data set [12]: Kinetic aqueous solubility of the compound. It is filed as physicochemical. Particulars: buffer; read-out: Kinetic_solubility.
The nature of data set [13]: Metabolic stability in mouse liver microsomes assessed as half life. The class given is ADME, Microsome.
A short description of data set [14]: Protein binding in mouse plasma. The class given is ADME, cell-free. Particulars: read-out: PPB (converted).
In data set [15] the test system is Mycobacterium tuberculosis. Nature of the data set: Antibacterial activity against Mycobacterium tuberculosis in acute Mtb infection C3HeB/FeJ mouse model assessed as reduction in log10 CFU in lungs at 250 mg/kg, po via gavage for 2 weeks. It is filed as functional.
Data set [16] concerns Mycobacterium tuberculosis. The class given is functional. Particulars: H37Rv, 120 h, time 5 day.
Data set [17] relates to Mycobacterium tuberculosis. Description: Antibacterial activity against Mycobacterium tuberculosis Erdman in chronic Mtb infection BALB/c mouse model assessed as reduction in log10 CFU in lungs at 200 mg/kg, po via gavage for 30 days in presence of 1-aminobenzotriazole. It is filed as functional. The following applies: time 30 day.
For data set [18], the system named is Mycobacterium tuberculosis. The class given is functional. The following applies: H37Rv, 216 h, time 9 day.
A short description of data set [19]: Cytotoxicity against African green monkey Vero cells treated for 2 days by Cell Titer Glo assay. It is filed as toxicity, cell-based. Particulars: chlorocebus sabaeus, time 2 day.
A short description of data set [20]: Solubility of the compound in microbiological medium at pH 6.8. The class given is physicochemical.
Data set [21] in a line: Metabolic stability in human liver S9 microsomes assessed as half life in presence of NADPH by LC-MS/MS analysis. It is filed as ADME.
The nature of data set [22]: Permeability in human Caco2 cells treated for 1 to 2 hrs by LC-MS/MS analysis. The class given is ADME, cell-based. Particulars: Caco-2, time 1-2 hrs, read-out: permeability.
A short description of data set [23]: Half life in BALB/c mouse at 200 mg/kg, po measured for 0.5 to 24 hrs by LC-MS analysis. It is filed as ADME, organism-based. The following applies: in vivo, time 0.5-24 hrs.
For data set [24], the system named is Mycobacterium tuberculosis. Nature of the data set: Antibacterial activity against Mycobacterium tuberculosis Erdman in chronic Mtb infection BALB/c mouse model assessed as reduction in log10 CFU in lungs at 200 mg/kg, po via gavage for 30 days. The class given is functional. The following applies: time 30 day.
Data set [25] deals with Mycobacterium tuberculosis. Description: Antibacterial activity against Mycobacterium tuberculosis Erdman in chronic Mtb infection BALB/c mouse model assessed as reduction in log10 CFU in lungs at 100 mg/kg, po via gavage for 30 days in presence of 1-aminobenzotriazole. The class given is functional. Particulars: time 30 day.
The test system of data set [26] is Mycobacterium tuberculosis. It is filed as functional. Particulars: H37Rv, time 6 day. The source holds these as a separate data set.
The subject of data set [27] is Mycobacterium tuberculosis. The class given is functional, H37Rv. The following applies: dose 150 mg/kg; route po; time 10 day.
For data set [28], the system named is HepG2. Description: Cytotoxicity against human HepG2 cells assessed as reduction in cell viability treated for 3 days by resazurin dye based assay. It is filed as functional. The following applies: HepG2, 72 h, time 3 day.
Data set [29] concerns HepG2. Nature of the data set: Cytotoxicity against human HepG2 cells. It is filed as functional.
Data set [30] has as its system Mycobacterium tuberculosis. It is filed as functional, H37Rv. Particulars: dose 50 mg/kg; route po; time 15 day.
A short description of data set [31]: Inhibition of Mycobacterium tuberculosis Shikimate dehydrogenase expressed in Escherichia coli BL21 using shikimic acid as substrate incubated for 60 mins in presence of NADP+ by enzymatic assay.
A further data set addresses T1, Cytochrome P450 1A2 (Homo sapiens, UniProt P05177).
T1 sequence (P05177 whole entry): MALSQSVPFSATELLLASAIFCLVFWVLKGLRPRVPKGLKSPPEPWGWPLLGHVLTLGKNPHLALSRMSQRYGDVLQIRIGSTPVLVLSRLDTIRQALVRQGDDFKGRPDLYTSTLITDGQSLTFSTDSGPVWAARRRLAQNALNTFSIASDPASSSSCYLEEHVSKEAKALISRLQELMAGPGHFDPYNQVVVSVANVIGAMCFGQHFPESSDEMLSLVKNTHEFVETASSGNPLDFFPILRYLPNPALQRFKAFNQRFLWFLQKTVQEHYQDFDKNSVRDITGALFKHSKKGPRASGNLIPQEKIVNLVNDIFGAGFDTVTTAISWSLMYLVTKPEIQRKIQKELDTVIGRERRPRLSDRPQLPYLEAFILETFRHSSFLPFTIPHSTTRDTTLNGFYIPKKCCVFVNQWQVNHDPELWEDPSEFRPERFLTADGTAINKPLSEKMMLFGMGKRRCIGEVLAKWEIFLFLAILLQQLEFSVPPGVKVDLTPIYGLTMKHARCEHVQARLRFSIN
Nature of the data set: Inhibition of CYP1A2 in human liver microsome in presence of NADPH measured after 10 mins by LC/MS/MS analysis. It is filed as microsomes.

The target in a further data set is Cytochrome P450 2C9 (Homo sapiens, UniProt P11712). Nature of the data set: Inhibition of CYP2C9 in human liver microsome in presence of NADPH measured after 10 mins by LC/MS/MS analysis. The class given is ADME, microsomes.
The target in another data set is Cytochrome P450 2C19 (Homo sapiens, UniProt P33261). Nature of the data set: Inhibition of CYP2C19 in human liver microsome in presence of NADPH measured after 10 mins by LC/MS/MS analysis. It is filed as ADME, microsomes.
The nature of data set [32]: Metabolic stability in human liver microsomes assessed as half life in presence of NADPH regenerating system measured for 5 to 60 mins by LC/MS/MS analysis. The class given is ADME, Microsome. The following applies: time 5-60 min.
Data set [33] is described as follows: Metabolic stability in mouse liver microsomes assessed as half life in presence of NADPH regenerating system measured for 5 to 60 mins by LC/MS/MS analysis. It is filed as ADME, Microsome. The following applies: time 5-60 min.
Data set [34] can be described thus: Metabolic stability in rat liver microsomes assessed as half life in presence of NADPH regenerating system measured for 5 to 60 mins by LC/MS/MS analysis. The class given is ADME, Microsome. Particulars: time 5-60 min.
A short description of data set [35]: Half life in Sprague-Dawley rat at 5 mg/kg, po measured for 0.083 to 24 hrs by LC-MS/MS analysis. The class given is ADME, organism-based. Particulars: in vivo, time 0.083-24 hrs.
Data set [36] in a line: Oral bioavailability in Sprague-Dawley rat at 5 mg/kg measured for 0.083 to 24 hrs by LC-MS/MS analysis. The class given is ADME, organism-based. The following applies: in vivo, time 0.083-24 hrs.
The test system of data set [37] is Mycobacterium tuberculosis. The class given is functional. Particulars: H37Rv, time 14-21 day.
Data set [38] deals with Mycobacterium tuberculosis. Description: Antibacterial activity against Mycobacterium tuberculosis Erdman in acute Mtb infection BALB/c mouse model assessed as reduction in log10 CFU in lungs at 100 mg/kg, po qd via gavage for 4 weeks. It is filed as functional.

Cytochrome P450 2C9, sequence (P11712 whole entry): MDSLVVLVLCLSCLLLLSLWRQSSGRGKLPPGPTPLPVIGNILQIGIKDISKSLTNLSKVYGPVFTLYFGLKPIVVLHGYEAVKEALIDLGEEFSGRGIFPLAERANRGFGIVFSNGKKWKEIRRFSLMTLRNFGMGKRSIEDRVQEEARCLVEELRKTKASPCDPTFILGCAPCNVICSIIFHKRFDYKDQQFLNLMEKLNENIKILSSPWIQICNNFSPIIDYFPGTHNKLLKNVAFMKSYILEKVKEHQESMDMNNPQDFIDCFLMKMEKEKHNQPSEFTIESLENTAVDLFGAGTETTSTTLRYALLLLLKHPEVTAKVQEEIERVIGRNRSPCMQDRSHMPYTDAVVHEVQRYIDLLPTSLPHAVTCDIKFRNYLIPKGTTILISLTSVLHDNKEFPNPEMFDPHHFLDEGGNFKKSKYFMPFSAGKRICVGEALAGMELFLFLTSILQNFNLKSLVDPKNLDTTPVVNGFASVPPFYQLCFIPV
Cytochrome P450 2C19, sequence (P33261 whole entry): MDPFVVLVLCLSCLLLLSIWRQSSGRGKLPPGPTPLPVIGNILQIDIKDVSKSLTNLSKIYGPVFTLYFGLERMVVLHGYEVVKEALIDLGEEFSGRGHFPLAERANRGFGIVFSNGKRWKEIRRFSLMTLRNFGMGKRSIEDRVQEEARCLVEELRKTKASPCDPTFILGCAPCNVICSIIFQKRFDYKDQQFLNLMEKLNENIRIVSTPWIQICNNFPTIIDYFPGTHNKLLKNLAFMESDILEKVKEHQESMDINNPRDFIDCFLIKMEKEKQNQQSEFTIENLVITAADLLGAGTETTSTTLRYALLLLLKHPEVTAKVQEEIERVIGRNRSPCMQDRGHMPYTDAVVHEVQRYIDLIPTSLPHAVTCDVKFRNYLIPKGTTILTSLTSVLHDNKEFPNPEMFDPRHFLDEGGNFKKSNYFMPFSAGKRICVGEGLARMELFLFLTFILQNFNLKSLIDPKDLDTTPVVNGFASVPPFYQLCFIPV

With `Cc1cnc2c(c1)cc([N+](=O)[O-])c1cccnc12`, in data set [1], the MIC99 was 0.2 µM (≈ 0.0478 µg/mL). Further, the Activity in [2] amounted to 1 log10CFU.
The compound `O=C(/C=C/c1nccs1)N1CCN(Cc2ccc3c(c2)OCO3)CC1` gave an MIC90 in data set [3] of 0.84 µM (≈ 0.3 µg/mL). For the same compound, the CC50 with HepG2 [4] came out at 210 µM. In [5], the Activity is given as 0.9 log10CFU.
With `CC1(C)CCC(OC(=O)Nc2cc(O)cc(Cc3ccccc3)c2)CC1`, in the data set with A549, the midpoint of cytotoxicity, the CC50, lay at 64 µM. The half-life in data set [6] turned out to be 1.8 min. Also, the Activity in [7] is listed as 1.3 log10RLU. The MIC90 in data set [8] amounted to 1.8 µM (≈ 0.636 µg/mL).
In the case of `CCSc1ncc(CN2CCN(c3nc4ccccc4o3)CC2)cn1`, the Activity in data set [9] worked out at 0.7 log10CFU; in data set [10], 54%; in [15], 0.9 log10CFU. Further, in [11], the CC50 at 72 h was greater than 141 µM. Besides, in [12], the solubility kinetic was 76 µM (≈ 27 µg/mL). The half-life in [13] was determined as 49 min. For the same compound, the fraction unbound in data set [14] was 0.03.
As for `Cc1cn2c(C(=O)NCc3ccc(N4CCN(c5ccc(C(F)(F)F)cn5)CC4)c(F)c3)c(C)nc2s1`, the MIC90 in [16] was 0.008 µM (≈ 0.00426 µg/mL). Moreover, the values for the Activity in data set [17], in data set [24] and in [25] were 0.6 log10CFU, 0.3 log10CFU and 0.3 log10CFU, respectively. Further, the MIC in [18] was 1.1 µM (≈ 0.586 µg/mL). This compound also displayed a cytotoxic concentration (CC50) at 48 h in data set [19] greater than 100 µM. For the same compound, the concentration in solution in data set [20] (solubility) was 50 µM (≈ 26.6 µg/mL). For the same compound, the half-life in data set [21] is 28 min; in data set [23], greater than 1440 min. Moreover, the Papp in data set [22] is less than 1 ×10⁻⁶ cm/s.
In the case of `CCSc1nc(NC)c2ccc(F)c(F)c2n1`, the MIC90 in data set [26] was 0.2 µM (≈ 0.0511 µg/mL). The compound also had an Activity in data set [27] of 0.5 log10CFU. Moreover, the CC50 with HepG2 [28] came to 153 µM.
The compound `COc1ccc(OCc2nn3c(-c4ccc(Br)cc4)nnc3s2)cc1` registered a CC50 in the data set with HepG2 [29] of 50 µM. The compound also had an Activity in data set [30] of 1.7 log10CFU. The IC50 in data set [31] is 29 µM; on Cytochrome P450 1A2 it was 0.56 µM; on Cytochrome P450 2C9, 0.56 µM; on Cytochrome P450 2C19, 0.56 µM. Also, the half-life in data set [32] is 1.1 min; in [33], 1.2 min; in [34] it was 17 min; in data set [35], 66 min. Moreover, in data set [36], the bioavailability is 14%. The same compound displayed an MIC in data set [8] of 4.8 µM (≈ 2 µg/mL).
In [37], `O=C1C=CN(c2c(F)cc(N3C[C@H](CNc4ccon4)OC3=O)c(F)c2F)CC1` [CONTEZOLID] displayed an MIC of 1.2 µM (≈ 0.49 µg/mL). Moreover, in [38], the Activity amounted to 2.3 log10CFU.
